Measured values taken from US12220442B2, “Antiepileptic toxin Martentoxin and use thereof” (Shanghai Institute of Organic Chemistry, Chinese Academy of …, priority 2018, dated 2025).

Columns and labels:
rat PTZ convulsion model = experiment: Recurrent convulsive behavior of PTZ in rat; assay type: in vivo
Description: Adult male SD rats were placed in a transparent glass box of 40×30×50 cm to observe the convulsive reaction after administration. Before injection, rats were placed in the box 1 h in advance, moved freely to adapt to the environment, and then injected PTZ (60 mg/kg) intraperitoneally to induce convulsion in rats. The experiment was divided into toxin injection group and normal saline blank control group.
(1) MarTX toxin injection group: after one intraperitoneal injection of PTZ to induce seizures of epilepsy, the rats were injected with MarTX toxin (dissolved in 2 μL normal saline) in the hippocampus the next day, and then the PTZ was injected again. The toxin dose was 0.08 μg, n=7-8 (n is the number of experimental rats);
(2) Normal saline blank control group: after one intraperitoneal injection of PTZ to induce seizures of epilepsy, the rats were injected with the same amount of normal saline into the hippocampus one day later, and then PTZ was injected again, n=6.
In the experiment, “double-blind” dosing and animal behavioral study were used to reduce human error. Incubation period, mortality, duration and number of seizures under different severity of seizures were measured as statistical indexes. The severity of seizures in rats was rated according to the following criteria [Neurophysiol. 1972, 32, 281-294; Brain Res. 1997, 758, 92-98]: • Grade 0: no response; • Grade 1: rhythmic twitch of mouth and face; • Grade 2: wave-like migratory spasm of body; • Grade 3: systemic myoclonus and hip upturned; • Level 4: the body turned to one side; • Grade 5: inverted position, systemic rigidity spasticity seizure.
A complete convulsive seizure was defined as the period from the onset of the seizure to the return to normal after the seizure. The interval of more than 5 s between seizures was defined as another independent seizure. Incubation period was defined as the time from PTZ injection to the beginning of the first grade 2 seizure.

[1] = test system: c-Fos expression in hippocampus; experiment: c-Fos expression in hippocampus after seizures in rats (immunohistochemistry); assay type: in vivo, rat; parameters: concentration or dose not given beside the values
Description: After the completion of the PTZ-induced epileptic status behavior experiment, the animals were anesthetized by intraperitoneal injection of sodium pentobarbital (60 mg/kg). The blood vessels were washed by perfusion of 200 mL normal saline through the ascending aorta of the left ventricle, and then perfused with 400 mL fixative solution (0.1M PBS containing […], pH7.4, 4° C.) for 1-2 h. After the brain tissue was removed and placed in the same fixative overnight, it was immersed in 20% sucrose solution until it sank to the bottom of the container, and then immersed in 30% sucrose solution until it sank to the bottom of the container.
The hippocampal region was secreted from the brain of the rats using a refrigerator slicer (Leica 1900, Germany) with a thickness of 20 μm. The slices were pasted on gelatin-chromium potassium sulfate treated glass slide and frozen at −20° C. for later use. C-Fos immunohistochemistry was performed as follows: • (1) The slice was taken out of the −20° C. refrigerator, reheated for 30 min, framed with a histochemical pen around the slice, and dried; • (2) The slices were immersed for 30 min for braking membrane in 1% Triton-X solution added with 1% H2O2; • (3) Rinsed 3 times with 0.01M PBS (pH7.4) buffer, 5 min for each time; • (4) Sealed with 5% Goat serum at 37° C. for 1 h; • (5) The serum was sucked dry with filter paper, rabbit anti-c-Fos antibody (1: 400, Sc-52, Santa Cruz, USA) was added, the antibody was diluted with 0.01 M PBS, 100 μL for each section, and incubated in a wet box at 4° C. for 48 h; • (6) Rinsed with 0.01 M PBS (pH 7.4) for 10 min and repeated 3 times; • (7) Biotin-labeled goat anti-rabbit IgG diluted with 0.01 M PBS (1:200) was added at room temperature for 2 h; • (8) Rinsed with 0.01 M PBS for 10 min and repeated 3 times. ABC complex (A:B:PBS=1:1:100) was added at room temperature for 2 h; • (9) Rinsed with 0.01 M PBS (pH 7.4) for 10 min and repeated 3 times; • (10) Stained in the dark by DAB-nickel sulfate amine-glucose oxidase (DAB, Sangon Biotech) for 10 min; • (11) Dehydration, 70%, 80%, 95%, 100% (×2) were used for dehydration, 5 min each time, and then soaked with xylene twice, 5 min each time; • (12) The expression of c-Fos was observed under a microscope and sealed with neutral gum.
The number of c-Fos-like immunoreactive (FLI) neurons in different hippocampal regions (CA1, CA3) and dentate gyrus (DG) was counted. Two groups of animals (6 animals in each group) were randomly selected from 6 to 8 sections for FLI counting in different regions (counting respectively on the same side and the other side of injected toxin or normal saline), and the average value was calculated at last. The inhibition rate of c-Fos expression was calculated according to the following formula. Inhibitory ratio=(A−B)/A×100%
Wherein, A represents the number of FLI neurons in the normal saline control group; B represents the number of FLI neurons in the MarTX toxin injection group in the corresponding region of the hippocampus.

hippocampal neurons = experiment: Hippocampal neuron damage after seizures in rats (Nissel staining); assay type: in vivo, rat; details: versus normal saline group
Description: (1) The slice was taken out of the −20° C. refrigerator, reheated for 20 min, framed with a histochemical pen around the slice, and dried;
(2) The slice was soaked in distilled water for 2 min;
(3) Nissel staining solution (purchased from Beyotime) was dropped on the brain slice, and dyed in a 37° C. water bath for 10 min;
(4) Washed twice with distilled water for 10 s each time;
(5) Sections were dehydrated with 70%, 80%, 95%, 100% alcohol, 2 min each time, and then soaked with xylene twice, 5 min each time;
(6) The nissel body staining was observed under a microscope and sealed with neutral gum.
The above two groups of animals (6 animals in each group) were randomly selected from 6 to 8 sections to count the neuron cells in different hippocampal regions (CA1, CA3 and DG). Finally, the average value was taken and the increasing rate of the number of neurons was calculated.

[2] = test system: hippocampus field potential; experiment: Field potential in hippocampus after seizure in rats; assay type: in vivo, rat; details: PTZ epilepsy model, versus normal saline group, n=3
Description: Microarray electrodes were implanted according to the sixth edition of “Rat Brain Stereotactic Atlas” (FIG. 1) edited by George Paxinos and Charles Watson to determine the position of the electrodes: AP: 4.3 mm, MR: 2.2 mm, DV: 2.5 mm, and 3-4 screws were fixed in the blank region of the skull as reference electrodes. The recording electrode and electrode base were fixed with dental cement. Field potentials (FP) were recorded after waking rats. FP signal and sync video could be recorded via omniplex (plexon, USA). According to Nesquet's sampling theory, the back end of the electrode was connected to a preamplifier and coupled to the analog-to-digital converter box. […] was taken as the sampling frequency of local field potential recording, and a […] were set for continuous recording for more than 30 minutes. The local field potential recording results were exported to *. pl2 file format, and visual preview was carried out using offline sorter v4 software. The same channel was used to analyze the local field potential, and the data were derived by MATLAB (MathWorks, USA) program. The local field potential signals of different frequencies were decomposed by wavelet transform to obtain the […] of different frequencies (δ: ˜0-4 Hz, θ: ˜4-8 Hz, α: ˜8-13 Hz, β: ˜13-30 Hz, γ: ˜30-100 Hz). […]

[3] = test system: rat hippocampal neurons pretreated with PTZ; experiment: Patch clamp current record and action potential analysis; assay type: cell-based
Description: If the resting membrane potential of the cell was −70 mV and the input resistance was 350MΩ or more, the patch clamp current was considered acceptable. The record was held at −80 mV as the holding current and induced by increasing positive current injection (for 1000 ms). The action potential differences between PTZ treated cells (measured 24 h after application) and PTZ treated epileptic cells (measured 10 min after application) treated with rMarTX were compared. The peak width was measured at half the peak amplitude of the action potential. The difference between the peak threshold value and the minimum voltage after the peak value of the action potential was used as the measurement value of the post-superpotential. Peak interval was the time between action potential peaks.
In the current patch clamp recording, the standard external solution was composed of 1.2 mM MgCl2, 10 mM HEPES, 10 mM glucose, 1.5 mM CaCl2, 2.5 mM KCl and 145 mM NaCl. The pH of the solution was adjusted to 7.4 with NaOH. The internal solution was composed of 1 mM CaCl2, 4 mM MgCl2, 10 mM HEPES, 11 mM EGTA, and 140 mM KCl. The pH of the solution was adjusted to 7.2 with KOH.

[4] = 0.08 μg in hippocampus, PTZ 60 mg/kg i.p., within 2 h
[5] = MarTX relative to normal saline
[6] = contralateral hippocampus, CA1 region
[7] = contralateral hippocampus, CA3 region
[8] = contralateral hippocampus, DG region
[9] = ipsilateral hippocampus, CA1 region
[10] = ipsilateral hippocampus, CA3 region
[11] = ipsilateral hippocampus, DG region
[12] = 300 pA current injection, versus normal saline group, n=4

For Martentoxin [MarTX], the Duration of epilepsy (rat PTZ convulsion model; [4]) was 160.00 ± 38.47 s, the Number of deaths (rat PTZ convulsion model; [4]) was 0/6 and the “The number of Grade 3 seizures” value (rat PTZ convulsion model; [4]) was 0.50 ± 0.22. For the same substance, the “The number of seizures from Grade 1 to Grade 2” value (rat PTZ convulsion model; [4]) was 4.33 ± 1.36, the “The number of seizures from Grade 4 to Grade 5” value (rat PTZ convulsion model; [4]) was 0.50 ± 0.34 and the Incubation (rat PTZ convulsion model; 0.08 μg in hippocampus, PTZ 60 mg/kg i.p., within 2 h, time to first grade 2 seizure) was 427.17 ± 62.21 s. The “Decrease of the number of epileptic seizures (Grade 4 & 5)” value (rat PTZ convulsion model; 0.08 μg, versus control group) was 77%, the “Duration of epilepsy, relative amplitude” value (rat PTZ convulsion model; [5]) was 40% and the “Incubation, relative amplitude” value (rat PTZ convulsion model; [5]) was 272%. The “The number of Grade 3 seizures, relative amplitude” value (rat PTZ convulsion model; [5]) was 14%, the “The number of seizures from Grade 1 to Grade 2, relative amplitude” value (rat PTZ convulsion model; [5]) was 42% and the “The number of seizures from Grade 4 to Grade 5, relative amplitude” value (rat PTZ convulsion model; [5]) was 23%. The “Reduction of the number of Grade 3 seizures” value (rat PTZ convulsion model; versus blank control group) was 86%, the “Reduction of the duration of epilepsy” value (rat PTZ convulsion model; versus control group) was “(2) MarTX toxin also significantly reduced the duration of epilepsy (duration of MarTX group: 160.00 ± 38.47 s, n = 6, *P < 0.05; control group was 400.00 ± 97.57 s, n = 6) by about 60%” and the “Inhibitory rate of c-Fos expression” value [1, 6] was 54.01%. The “Inhibitory rate of c-Fos expression” value [1, 7] was 55.25%, the “Inhibitory rate of c-Fos expression” value [1, 8] was 78.53% and the “Inhibitory rate of c-Fos expression” value [1, 9] was 60.71%. For the same substance, the “Inhibitory rate of c-Fos expression” value [1, 10] was 51.18%, the “Inhibitory rate of c-Fos expression” value [1, 11] was 84.98% and the Neuronal increase rate (hippocampal neurons; [6]) was 79.50%. It also gave a Neuronal increase rate (hippocampal neurons; [7]) of 94.82%, a Neuronal increase rate (hippocampal neurons; [8]) of 79.62% and a Neuronal increase rate (hippocampal neurons; [9]) of 95.73%. The Neuronal increase rate (hippocampal neurons; [10]) was 102.02%, the Neuronal increase rate (hippocampal neurons; [11]) was 93.43% and the “Power spectrum density of brain δ, θ, α, β and γ waves” value [2] was “significantly lower”. For the same substance, the “Discharge rate (number of action potentials)” value ([3]; 100, 200 and 300 pA current injection, versus normal saline group, n=4) was “significant decrease”, the “Action potential peak interval” value ([3]; 300 pA current injection, versus PTZ pretreated cells (normal saline group), n=4) was “significantly longer” and the Action potential width [3, 12] was “greater”. The “Amplitude of the post-hypertrophy potential” value [3, 12] was “significantly increased” and the Action potential failure ([3]; higher current injection (300 pA), versus normal saline group) was “more action potential failure”.
